Tested on: Orexin A (ORX-A) producing neurons in the DMH/PeF
Experiment: c-Fos induction in ORX neurons of 1-AG and d-AG treated rats
Type: in vivo, rat
Details: 1-AG infused into DMH/PeF (3.5 nmol/0.5 μl per hour); vs d-AG treated control rats
Description: Methods for perfusion and for verification of cannulae placements in experiment 12 were performed following procedures discussed herein. Briefly, 1-AG or d-AG treated rats received i.v. infusions of either lactate or saline vehicle over 15 min (n=6/group for 4 groups), were immediately tested in the SI test, then anesthetized and perfused with a 4% paraformaldehyde/1.5% sucrose solution and processed for immunohistochemistry 90 min following the onset of the i.v. infusions.
Brain sections from all rats were immunostained with the appropriate primary antibody in a single immunohistochemical run, rather than in batches, with large volume incubations to limit variability in the quality of immunohistochemical staining among brain sections.
Sections were washed in PBS and then incubated in 1% H2O2 in PBS for 20 min. Sections were washed in PBS then PBST then incubated 12-16 h in PBST with primary antibody. The following day, sections were incubated 2 h in the appropriate secondary antibody: biotinylated swine anti-rabbit IgG (c-Fos day 1, and orexin A or MCH day 2; cat no. E0353; DAKO, diluted 1:200). Sections were washed again for 30 min in PBST then incubated 1.5 h in an avidin-biotin-peroxidase complex (cat no. PK-6100, Vector Labs, diluted 1:200). […]

C=CC[C@H](N)C(=O)O [1-AG, 1-allylglycine]
c-Fos immunoreactive ORX-A neurons in the DMH/PeF: increased

Source: patent publication US8877773B2, “Methods for treating chronic obstructive pulmonary disease” (Indiana University Research and Technology Corporation, priority 2009, dated 2014)
